{
  "source": "patent EP0588317A1",
  "about": "(priority 1992, dated 1994)",
  "key": {"[1]": {"experiment": "solubility in soybean oil", "type": "physicochemical", "description": "The oil phase component used for preparing fat emulsions (or lipid emulsions) may be any of those conventionally used for preparing fat emulsions (or lipid emulsions), including vegetable oils such as soybean oil, cottonseed oil, synthetic triglycerides such as Panasate 800, Panasate 810 (trade name; manufactured by Nippon Yushi), squalene, eicosapentaenoic acid, azone, and the like. For preparing fat emulsions (or lipid emulsions), high solubility in these oil components is required for substance to be fat-emulsified (or lipid-emulsified). The compound of the present invention has a high solubility in these oil components, for example, 300 mg/ml or more in soybean oil at 40°C. The fat emulsions (or lipid emulsions) can be prepared by dissolving the compound of the present invention in soybean oil, Panasate, etc., adding lecithin to the solution, crude-emulsifying the mixture with a homomixer, etc., and then fine-emulsifying with a nanomizer under high pressure."}, "colon 26 cells": {"test_system": "colon 26 cells", "experiment": "anti-tumor activity of fat emulsion given intravenously to mice inoculated with colon 26 cells", "type": "in vivo", "settings": "fat emulsions, 14 days, dose per day 50 mg/kg"}, "[2]": {"test_system": "established cell line derived from mice", "settings": "at the same molar concentration, in vitro, versus 5-fluorouracil; cited from earlier work"}, "[3]": {"settings": "versus 5-fluorouracil; cited from earlier work"}},
  "note": "Like-named read-outs stand apart in the source and are kept apart here.",
  "data": [
    {"smiles": "CCCCCCC(=O)OCn1c(=O)c(F)cn([C@@H]2O[C@H](COC(=O)CCC)[C@@H](OC(=O)CCC)[C@H]2OC(=O)CCC)c1=O", "note": "[Example 20, 2',3',5'-O-tri-n-butyryl-3-n-heptanoyloxymethyl-5-fluorouridine]", "values": [
      {"measurement": "solubility of this compound in soybean oil", "setting": "[1]", "value": "> 300", "unit": "mg/soybean oil 1 ml"}
    ]},
    {"smiles": "CCCCC/C=C\\C/C=C\\CCCCCCCC(=O)OCn1c(=O)c(F)cn([C@@H]2O[C@H](COC(=O)CCC)[C@@H](OC(=O)CCC)[C@H]2OC(=O)CCC)c1=O", "note": "[Example 19, 2',3',5'-O-tri-n-butyryl-3-linolyloxymethyl-5-fluorouridine]", "values": [
      {"measurement": "solubility of this compound in soybean oil", "setting": "[1]", "value": "> 300", "unit": "mg/soybean oil 1 ml"}
    ]},
    {"smiles": "CCCCCCC(=O)OCn1c(=O)c(F)cn([C@H]2C[C@H](OC(=O)CCC)[C@@H](COC(=O)CCC)O2)c1=O", "note": "[Example 4]", "values": [
      {"measurement": "solubility", "setting": "[1]; 40 °C, oil or lipid; soybean oil; read-out: solubility of this compound in soybean oil", "value": "> 300", "unit": "mg/mL"},
      {"measurement": "growth inhibiting activity", "setting": "colon 26 cells; male mice inoculated with colon 26 cells in the inguinal region", "value": "more than 90%"},
      {"measurement": "body weight", "setting": "colon 26 cells; male mice inoculated with colon 26 cells", "value": "without decrease of body weight"}
    ]},
    {"smiles": "CCCCC/C=C\\C/C=C\\CCCCCCCC(=O)OCn1c(=O)c(F)cn([C@H]2C[C@H](OC(=O)Oc3ccc(OC)cc3)[C@@H](COC(=O)Oc3ccc(OC)cc3)O2)c1=O", "note": "[Example 16, 3',5'-O-di(4-methoxyphenoxy-carbonyl)-3-linolyloxymethyl-2'-deoxy-5-fluorouridine]", "values": [
      {"measurement": "solubility of this compound in soybean", "setting": "[1]", "value": 150, "unit": "mg/0.5 ml"}
    ]},
    {"smiles": "CCCCC/C=C\\C/C=C\\CCCCCCCC(=O)OCn1c(=O)c(F)cn([C@H]2C[C@H](OC(=O)Oc3ccccc3)[C@@H](COC(=O)Oc3ccccc3)O2)c1=O", "note": "[Example 15, 3',5'-O-diphenoxycarbonyl-3-linolyloxymethyl-2'-deoxy-5-fluorouridine]", "values": [
      {"measurement": "solubility of this compound in soybean", "setting": "[1]", "value": 150, "unit": "mg/0.5 ml"}
    ]},
    {"smiles": "CCCCC/C=C\\C/C=C\\CCCCCCCC(=O)OCn1c(=O)c(F)cn([C@H]2C[C@H](OC(C)=O)[C@@H](COC(C)=O)O2)c1=O", "note": "[Example 3, 3',5'-O-diacetyl-3-linolyloxymethyl-2'-deoxy-5-fluorouridine]", "values": [
      {"measurement": "solubility", "setting": "[1]; soybean oil, 40 °C, oil or lipid; read-out: solubility of this compound in soybean oil", "value": "> 300", "unit": "mg/mL"}
    ]},
    {"smiles": "O=c1[nH]c(=O)n([C@H]2C[C@H](O)[C@@H](CO)O2)cc1F", "note": "[FdUrd, 2'-Deoxy-5-fluorouridine]", "values": [
      {"measurement": "cancer inhibitory activity relative to 5-fluorouracil", "setting": "[2]", "value": "more than 100 times"},
      {"measurement": "in vivo advantage over 5-fluorouracil", "setting": "[3]", "value": "no advantage over 5-fluorouracil"}
    ]}
  ]
}
